Converted amounts (≈) assume the structure as drawn.
Tested on: Staphylococcus aureus Smith
Assay: MIC assay, modified agar dilution (CLSI), S. aureus Smith
Assay type: cell-based
Conditions: agar dilution, 35° C., 16-20 hr, lowest concentration that completely inhibited growth; for MIC: Staphylococcus aureus, read-out: S_aureus_Smith_WT_MIC
Procedure: The potency of antibacterial agents was measured using the Minimal Inhibitory Concentration (MIC) assay. The assay measures the ability of test agents to inhibit the growth of bacteria on agar-containing medium.
The bacterial test strains used were exemplified by Staphylococcus aureus Smith, Enterococcus faecium A2373, Streptococcus pneumoniae IID554, and Escherichia coli ATCC 25922. All strains were maintained as frozen stocks held at −80° C. in skim milk. Other bacterial test strains are well known to those skilled in the art and can be used for testing.
Mueller Hinton Agar (MHA BBL; Becton Dickinson and Company, Sparks, Md.) was used as the medium. MHA was supplemented with 5% defibrinated horse blood (DHB; Nippon Biotest Laboratories inc.) to support the growth of S. pneumoniae and E. faecium.
MIC values were determined using a modified agar dilution procedure described by the Clinical and Laboratory Standards Institute (CLSI; Methods for Dilution Antimicrobial Susceptibility Tests for Bacteria That Grow Aerobically; Approved Standard—Eighth Edition. CLSI document M07-A8 [ISBN 1-56238-689-1]. Clinical and Laboratory Standards Institute, 940 West Valley Road, Suite 1400, Wayne, Pa. 19087-1898 USA, 2009).
Stock solutions (6.4 mgmL) of test compounds were prepared in 100% ultrapure dimethyl sulfoxide (DMSO; source) on the day of the assay. Subsequent serial dilutions were performed to generate solutions with concentrations ranging from 6.4 to 0.0002 mgmL in 100% DMSO.
Agar medium containing test compound was prepared by adding the dilutions of antimicrobial solution to molten MHA at a temperature of 45-50° C. The agar and antimicrobial solution were mixed thoroughly, poured into petri dishes, and allowed to solidify at room temperature. The final concentration of test compounds in the MHA medium ranged from 128 to 0.001 μg/mL with two-fold dilutions. MHA plates lacking antibacterial compound were used for growth controls.
Prior to susceptibility testing, the bacterial isolates were removed from frozen storage, thawed at room temperature, sub-cultured to MHA medium and incubated overnight at 35° C. S. pneumoniae and E. faecium were subcultured on MHA supplemented with 5% DHB at 35° C. with […]. Colonies from each plate were suspended in normal saline. This suspension was adjusted to the turbidity of a 0.5 McFarland standard, 1-2×10^8 colony forming units (CFU) per mL, and diluted 100-fold to 1-2×10^6 CFUmL.
Suspensions of bacterial cultures were applied to the surface of MHA plates containing test compound as well as to a growth control plate lacking test compound using an inoculum-replicating device with 4 mm pins. The replicating device applied 5 uL of the bacterial suspension such that each spot contained approx. 1×10^4 CFU. Plates were dried for about 40 min and incubated at 35° C. for 16-20 hr prior to scoring.

Structure (SMILES)	MIC [µg/mL]	other results
O=C1COc2ccc(CNC34CCC(C(O)Cn5c(=O)ccc6ncc(F)cc65)(CC3)OC4)nc2N1 (single isomer, unassigned) [Example 55b, 6-((1-(2-(7-fluoro-2-oxo-1,5-naphthyridin-1(2H)-yl)-1-hydroxyethyl)-2-oxabicyclo[2.2.2]octan-4-ylamino)methyl)-2H-pyrido[3,2-b][1,4]oxazin-3(4H)-one]		S_aureus_Smith_WT_MIC: 0.250 µg/mL
COc1ccc2ncc(F)c(CCC34CCC(NCc5ccc6c(n5)NC(=O)C(C)O6)(CC3)CO4)c2n1.Cl (single isomer, unassigned) [Example 100a, 6-((1-(2-(3-Fluoro-6-methoxy-1,5-naphthyridin-4-yl)ethyl)-2-oxabicyclo[2.2.2]octan-4-ylamino)methyl)-2-methyl-2H-pyrido[3,2-b][1,4]oxazin-3(4H)-one Hydrochloride]		S_aureus_Smith_WT_MIC (Hydrochloride): 0.250 µg/mL
COc1ccc2ncc(F)c(CCC34CCC(NCc5ccc6c(n5)NC(=O)C(C)O6)(CC3)CO4)c2n1.Cl (single isomer, unassigned) [Example 100b, 6-((1-(2-(3-Fluoro-6-methoxy-1,5-naphthyridin-4-yl)ethyl)-2-oxabicyclo[2.2.2]octan-4-ylamino)methyl)-2-methyl-2H-pyrido[3,2-b][1,4]oxazin-3(4H)-one Hydrochloride]		S_aureus_Smith_WT_MIC (Hydrochloride): 0.0630 µg/mL
COc1ccc2ncc(F)c(CC(O)C34CCC(NCc5cc6c(cn5)OCCO6)(CC3)CO4)c2n1 (single isomer, unassigned) [Example 132, 1-(4-((2,3-Dihydro-[1,4]dioxino[2,3-c]pyridin-7-yl)methylamino)-2-oxabicyclo[2.2.2]octan-1-yl)-2-(3-fluoro-6-methoxy-1,5-naphthyridin-4-yl)ethanol]	0.031 (≈ 0.0624 µM)	
COc1ccc2ncc(F)c(CC(O)C34CCC(NCc5cc6ccccc6n(C)c5=O)(CC3)CO4)c2n1 (single isomer, unassigned) [Example 133, 3-((1-(2-(3-Fluoro-6-methoxy-1,5-naphthyridin-4-yl)-1-hydroxyethyl)-2-oxabicyclo[2.2.2]octan-4-ylamino)methyl)-1-methylquinolin-2(1H)-one]	1 (≈ 1.93 µM)	
COc1ccc2ncc(F)c(CC(O)C34CCC(NCc5cc6c(cn5)OCC(=O)N6)(CC3)CO4)c2n1 (single isomer, unassigned) [Example 134, 7-((1-(2-(3-Fluoro-6-methoxy-1,5-naphthyridin-4-yl)-1-hydroxyethyl)-2-oxabicyclo[2.2.2]octan-4-ylamino)methyl)-1H-pyrido[3,4-b][1,4]oxazin-2(3H)-one]	0.063 (≈ 0.124 µM)	
COc1ccc2ncc(F)c(CC(O)C34CCC(NCc5nc6c(cc5F)OCC(=O)N6)(CC3)CO4)c2n1 (single isomer, unassigned) [Example 135, 7-Fluoro-6-((1-(2-(3-fluoro-6-methoxy-1,5-naphthyridin-4-yl)-1-hydroxyethyl)-2-oxabicyclo[2.2.2]octan-4-ylamino)methyl)-2H-pyrido[3,2-b][1,4]oxazin-3(4H)-one]	0.031 (≈ 0.0588 µM)	
COc1ccc2ncc(F)c(C(C)C(O)C34CCC(NCc5ccc6c(n5)NC(=O)CO6)(CC3)CO4)c2n1 (single isomer, unassigned) [Example 151a, 6-((1-(2-(3-Fluoro-6-methoxy-1,5-naphthyridin-4-yl)-1-hydroxypropyl)-2-oxabicyclo[2.2.2]octan-4-ylamino)methyl)-2H-pyrido[3,2-b][1,4]oxazin-3(4H)-one]		S_aureus_Smith_WT_MIC: 32.0 µg/mL
COc1ccc2ncc(F)c(C(C)C(O)C34CCC(NCc5ccc6c(n5)NC(=O)CO6)(CC3)CO4)c2n1 (single isomer, unassigned) [Example 151b, 6-((1-(2-(3-Fluoro-6-methoxy-1,5-naphthyridin-4-yl)-1-hydroxypropyl)-2-oxabicyclo[2.2.2]octan-4-ylamino)methyl)-2H-pyrido[3,2-b][1,4]oxazin-3(4H)-one]		S_aureus_Smith_WT_MIC: 4.00 µg/mL
COc1ccc2ncc(F)c(C[C@@H](O)C34CCC(NCc5cc6c(cn5)OCCO6)(CC3)CC4)c2n1.Cl (single isomer, unassigned) [Example 200]	0.75	
COc1ccc2ncc(F)c(C[C@H](O)C34CCC(NCc5cc6c(cn5)OCCO6)(CC3)CC4)c2n1.Cl (single isomer, unassigned) [Example 201]	0.06	
N#Cc1cnc2ccc(=O)n(CC(O)C34CCC(NCc5cc6c(cn5)OCCO6)(CC3)CO4)c2c1 (single isomer, unassigned; enantiomer a) [Example 159, 5-(2-(4-((2,3-Dihydro-[1,4]dioxino[2,3-c]pyridin-7-yl)methylamino)-2-oxabicyclo[2.2.2]octan-1-yl)-2-hydroxyethyl)-6-oxo-5,6-dihydro-1,5-naphthyridine-3-carbonitrile (Enantiomer A)]	2 (≈ 4.09 µM)	
N#Cc1cnc2ccc(=O)n(CC(O)C34CCC(NCc5ccc6c(n5)NC(=O)CO6)(CC3)CO4)c2c1 (single isomer, unassigned; enantiomer a) [Example 160, 5-(2-Hydroxy-2-(4-((3-oxo-3,4-dihydro-2H-pyrido[3,2-b][1,4]oxazin-6-yl)methylamino)-2-oxabicyclo[2.2.2]octan-1-yl)ethyl)-6-oxo-5,6-dihydro-1,5-naphthyridine-3-carbonitrile (Enantiomer A)]	0.25 (≈ 0.497 µM)	
COC(=O)C1CC1COc1ccc2ncc(F)c(CCC34CCC(NCc5ccc6c(n5)NC(=O)CO6)(CC3)CO4)c2n1 (single isomer, unassigned; enantiomer a) [Example 227, Methyl 247-Fluoro-8-(2-(4-((3-oxo-3,4-dihydro-2H-pyrido[3,2-b][1,4]oxazin-6-yl)methylamino)-2-oxabicyclo[2.2.2]octan-1-yl)ethyl)-1,5-naphthyridin-2-yloxy)methyl)cyclopropanecarboxylate (Enantiomer A)]	0.063 (≈ 0.106 µM)	
N#Cc1cnc2ccc(=O)n(CC(O)C34CCC(NCc5cc6c(cn5)OCCO6)(CC3)CO4)c2c1 (single isomer, unassigned; enantiomer b) [Example 161, 5-(2-(4-((2,3-Dihydro-[1,4]dioxino[2,3-c]pyridin-7-yl)methylamino)-2-oxabicyclo[2.2.2]octan-1-yl)-2-hydroxyethyl)-6-oxo-5,6-dihydro-1,5-naphthyridine-3-carbonitrile (Enantiomer B)]		S_aureus_Smith_WT_MIC: 2.00 µg/mL
COC(=O)[C@H]1C[C@H]1COc1ccc2ncc(F)c(CCC34CCC(NCc5ccc6c(n5)NC(=O)CO6)(CC3)CO4)c2n1 (single isomer, unassigned; enantiomer b) [Example 228, Methyl 2-((7-Fluoro-8-(2-(4-((3-oxo-3,4-dihydro-2H-pyrido[3,2-b][1,4]oxazin-6-yl)methylamino)-2-oxabicyclo[2.2.2]octan-1-yl)ethyl)-1,5-naphthyridin-2-yloxy)methyl)cyclopropanecarboxylate (Enantiomer B)]	0.25 (≈ 0.423 µM)	
COc1ccc2nccc(CCC34CCC(NCc5ccc6c(n5)NC(=O)CO6)(CC3)CC4)c2n1.Cl [Example 1, 6-((4-(2-(6-Methoxy-1,5-naphthyridin-4-yl)ethyl)bicyclo[2.2.2]octan-1-ylamino)methyl)-2H-pyrido[3,2-b][1,4]oxazin-3(4H)-one Hydrochloride]	0.031	
CCOC(=O)c1cnc2ccc(OC)nc2c1CCC12CCC(NCc3ccc4c(n3)NC(=O)CO4)(CC1)CC2 [Example 2, Ethyl 6-Methoxy-4-(2-(4-((3-oxo-3,4-dihydro-2H-pyrido[3,2-b][1,4]oxazin-6-yl)methylamino)bicyclo[2.2.2]octan-1-yl)ethyl)-1,5-naphthyridine-3-carboxylate]	0.125 (≈ 0.229 µM)	
COc1ccc2ncc(N)c(CCC34CCC(NCc5ccc6c(n5)NC(=O)CO6)(CC3)CC4)c2n1.Cl [Example 3, 6-((4-(2-(3-Amino-6-methoxy-1,5-naphthyridin-4-yl)ethyl)bicyclo[2.2.2]octan-1-ylamino)methyl)-2H-pyrido[3,2-b][1,4]oxazin-3(4H)-one Hydrochloride]	0.25	
COc1ccc2ncc(F)c(CCC34CCC(NCc5ccc6c(n5)NC(=O)CO6)(CC3)CC4)c2n1.Cl [Example 4, 6-((4-(2-(3-Fluoro-6-methoxy-1,5-naphthyridin-4-yl)ethyl)bicyclo[2.2.2]octan-1-ylamino)methyl)-2H-pyrido[3,2-b][1,4]oxazin-3(4H)-one Hydrochloride]	0.016	
